{
  "source": "patent US8393321B2",
  "about": "“Drug delivery system for conscious sedation” (Piramal Critical Care, Inc., priority 2001, dated 2013)",
  "key": {"patient": {"system": "patient", "settings": "conscious sedation; cited from earlier work"}, "patients [1]": {"system": "patients", "test": "Conscious sedation (CS) level, MAC equivalent of 70% nitrous oxide", "assay_type": "in vivo, human", "protocol": "The concentration of oxygen in the atmosphere approximates 21%. […] The most common ratio is 70% N2O/30% oxygen, although some delivery systems maintain 50% oxygen.\nThe potency of anesthetic agents is measured by the minimum alveolar concentration of an anesthetic producing immobility in 50% of patients, defined as 39 year old males, undergoing surgical incision (“MAC”). […] In present inhalant conscious sedation systems, nitrous oxide is delivered in conjunction with a minimum of 30% oxygen to insure the patient maintains a sufficient level of oxygen. […] For this description a MAC equivalent of 70% nitrous oxide will be used for comparison with other inhalants, as shown in Table 2."}, "patients [2]": {"system": "patients", "settings": "in 100% oxygen for middle-aged men, cited from earlier work"}, "patients [3]": {"system": "patients", "settings": "N2O with oxygen; cited from earlier work"}, "[4]": {"settings": "soda lime (calcium hydroxide) and/or UV light; cited from earlier work"}},
  "note": "Read-outs that look alike come from different tables or passages of the source.",
  "data": [
    {"smiles": "[N-]=[N+]=O", "note": "[Nitrous Oxide]", "values": [
      {"measurement": "Abuse Potential", "setting": "patient", "result": "Recre-"},
      {"measurement": "Safety Profile", "setting": "patient", "result": "Teratogenic"},
      {"measurement": "Implied CS Level", "setting": "patients [1]; in vivo", "result": 70.00, "unit": "%"},
      {"measurement": "MAC Equivalent", "setting": "patients [1]; in vivo", "result": ".636"},
      {"measurement": "Minimum Alveolar Content (MAC) of 70% N2O/30% oxygen mixture", "setting": "patients [1]; in vivo", "result": 0.636, "unit": "MAC"},
      {"measurement": "MAC", "setting": "patients [2]", "result": 110.00, "unit": "%"},
      {"measurement": "MAC", "setting": "patients [2]; listed as nitrous oxide", "result": 110, "unit": "%"},
      {"measurement": "mixture concentration at which conscious sedation occurs in most patients", "setting": "patients [3]", "result": 70, "unit": "%"}
    ]},
    {"smiles": "CN1C(=O)CN=C(c2ccccc2)c2cc(Cl)ccc21", "note": "[IV Diazepam, Diazepam]", "values": [
      {"measurement": "Abuse Potential", "setting": "patient", "result": "Controlled"},
      {"measurement": "Safety Profile", "setting": "patient", "result": "Moderate"}
    ]},
    {"smiles": "FCOC(C(F)(F)F)C(F)(F)F", "note": "[Sevoflurane]", "values": [
      {"measurement": "decomposition in presence of soda lime and/or UV light", "setting": "[4]", "result": "decompose"},
      {"measurement": "Implied CS Level", "setting": "patients [1]; in vivo", "result": 1.27, "unit": "%"},
      {"measurement": "MAC", "setting": "patients [2]", "result": 2.00, "unit": "%"}
    ]},
    {"smiles": "FC(F)OC(Cl)C(F)(F)F", "note": "(stereo not shown) [Isoflurane]", "values": [
      {"measurement": "Implied CS Level", "setting": "patients [1]; in vivo", "result": 0.73, "unit": "%"},
      {"measurement": "MAC", "setting": "patients [2]", "result": 1.15, "unit": "%"}
    ]},
    {"smiles": "FC(F)OC(F)C(F)(F)F", "note": "(stereo not shown) [Desflurane]", "values": [
      {"measurement": "Implied CS Level", "setting": "patients [1]; in vivo", "result": 3.82, "unit": "%"},
      {"measurement": "MAC", "setting": "patients [2]", "result": 6.00, "unit": "%"}
    ]},
    {"smiles": "COC(F)(F)C(Cl)Cl", "note": "[Methoxyflurane]", "values": [
      {"measurement": "decomposition in presence of soda lime and/or UV light", "setting": "[4]", "result": "decompose"},
      {"measurement": "Implied CS Level", "setting": "patients [1]; MAC equivalent of 70% nitrous oxide (.636)", "result": 0.11, "unit": "%"},
      {"measurement": "MAC", "setting": "patients [2]", "result": 0.16, "unit": "%"},
      {"measurement": "MAC", "setting": "patients [2]; listed as methoxyflurane", "result": 0.16, "unit": "%"}
    ]},
    {"smiles": "Cc1ncc2n1-c1ccc(Cl)cc1C(c1ccccc1F)=NC2", "note": "[IV Midazolam, Midazolam]", "values": [
      {"measurement": "Abuse Potential", "setting": "patient", "result": "Controlled"},
      {"measurement": "Safety Profile", "setting": "patient", "result": "Moderate"}
    ]},
    {"smiles": "FC(F)OC(F)(F)C(F)Cl", "note": "(stereo not shown) [Enflurane]", "values": [
      {"measurement": "Implied CS Level", "setting": "patients [1]; in vivo", "result": 1.07, "unit": "%"},
      {"measurement": "MAC", "setting": "patients [2]", "result": 1.68, "unit": "%"}
    ]},
    {"smiles": "FC(F)(F)C(Cl)Br", "note": "(stereo not shown) [Halothane]", "values": [
      {"measurement": "decomposition in presence of soda lime and/or UV light", "setting": "[4]", "result": "decompose"},
      {"measurement": "Implied CS Level", "setting": "patients [1]; in vivo", "result": 0.48, "unit": "%"},
      {"measurement": "MAC", "setting": "patients [2]", "result": 0.75, "unit": "%"}
    ]}
  ]
}
